For the experiment, the system named is HL-60. Nature of the experiment: Growth inhibition of human HL60 cells. It counts as functional, cell-based.

`CC(C)=C1Oc2c(ccc(CC(C)O)c2CO)C1=O` (stereo unspecified) [USTUSORANE A] gave an IC50 of 130 nM.

These data come from ChEMBL document CHEMBL3585254, “Synthesis and structural characterization of natural benzofuranoids” (J Nat Prod, 2015).
